Reference: patent US20140005163A1 (NOVARTIS AG, priority 2010, published 2014)
pIC50: −log10 of the molar value.

Tests used:
PI3K alpha = target: T1, PI3K alpha (Homo sapiens, UniProt P42336); experiment: PI3K alpha kinase assay (Kinase-Glo luminescence); type: biochemical
T1 construct: p85(iSH2) fusion partner (see partner chain) (N); His tag (C); made in house; host or cells: baculovirus; Tn5 (Trichoplusia ni) or TiniPro insect cells
Protocol: (§1) In a more preferred assay, the kinase reaction is performed in a final volume of 10 μL per well of a low volume non binding CORNING, 384 well black plate (Cat. No. #3676). The final concentrations of ATP and phosphatidyl inositol (PI) in the assay are 1 μM and 10 μg/mL respectively. The reaction is started by the addition of ATP.
(§2) The components of the assay are added per well as follows:
(§3) […] in 90% DMSO per well, in columns 1-20, 8 concentrations (1/3 and 1/3.33 serial dilution step) in single. • Low control: […] of 90% DMSO in half the wells of columns 23-24 (0.45% in final). • High control: […] of reference compound (e.g. compound of Example 7 in WO 2006/122806) in the other half of columns 23-24 (2.5 μM in final). • Standard: […] of reference compound as just mentioned diluted as the test compounds in columns 21-22 • 20 mL ‘buffer’ are prepared per assay: • 200 μL of 1M TRIS HCl pH7.5 (10 mM in final) • 60 μL of 1M MgCl2 (3 mM in final) • 500 μL of 2M NaCl (50 mM in final) • 100 μL of 10% CHAPS (0.05% in final) • 200 μL of 100 mM DTT (1 mM in final) • 18.94 mL of nanopure water • 10 mL ‘PI’ are prepared per assay: • 200 μL of 1 mg/ml L-alpha-Phosphatidylinositol (Liver Bovine, Avanti Polar Lipids Cat. No. 840042C MW=909.12) prepared in 3% OctylGlucoside (10 μg/ml in final) • 9.8 mL of ‘buffer’ • 10 mL ‘ATP’ are prepared per assay: • 6.7 μL of 3 mM stock of ATP giving a final concentration of 1 μM per well • 10 mL of ‘buffer’ • 2.5 mL of each PI3K construct are prepared per assay in ‘PI’ with the following final concentration: • 10 nM PI3K alfa EMV B1075 • 25 nM beta EMV BV949 • 10 nM delta EMV BV1060 • 150 nM gamma EMV BV950 • 5 μL of ‘PI/PI3K’ are added per well. • 5 μl ‘ATP’ are added per well to start the reaction. • The plates are then incubated at room temperature for 60 minutes (alfa, beta, delta) or 120 minutes (gamma). • The reaction is terminated by the addition of 10 μL Kinase-Glo (Promega Cat. No. #6714). • The assay plates are read after 10 minutes in Synergy 2 reader (BioTek, Vermont USA) with an integration time of 100 milliseconds and sensitivity set to 191. • Output: The High control is around 60'000 counts and the Low control is 30'000 or lower • This luminescence assay gives a useful Z′ ratio between 0.4 and 0.7
Two different constructs, BV 1052 and BV 1075, are used to generate the PI3 Kinase a proteins for compound screening.
(§4) IC50 is determined by a four parameter curve fitting routine that comes along with “excel fit”. […] Alternatively, IC50 values are calculated using idbsXLfit model 204, which is a 4 parameter logistic model.

PI3K beta = target: T2, PI3K beta (Homo sapiens, UniProt P42338); experiment: PI3K beta kinase assay (Kinase-Glo luminescence); type: biochemical
T2 construct: for the full-length p110-b subunit are generated and fused by overlapping PCR; p85(iSH2) fusion partner (see partner chain) (N); His tag (C); made in house; host or cells: baculovirus; Tn5 (Trichoplusia ni) or TiniPro insect cells
Protocol: as §1, §2, §3
PI3Kβ BV-949 p85(iSH2)-Gly Linker-p110b(Full-Length)-C-Term his Tag
as §4

PI3K delta = target: T3, PI3K delta (Homo sapiens, UniProt O00329); experiment: PI3K delta kinase assay (Kinase-Glo luminescence); type: biochemical
T3 construct: for the full-length p110-d subunit are generated and fused by overlapping PCR; p85(iSH2) fusion partner (see partner chain) (N); His tag (C); made in house; host or cells: baculovirus; Tn5 (Trichoplusia ni) or TiniPro insect cells
Protocol: as §1, §2, §3
PI3Kγ BV-1060 p85(iSH2)-Gly Linker-p110d(Full-Length)-C-Term his Tag
as §4

mTOR = target: T4, mTOR (Homo sapiens, UniProt P42345); experiment: Biochemical assay for m-TOR by TR-FRET; conditions: 8 μM ATP, 400 nM GFP-4EBP1, 0.5 nM mTOR
T4 construct: purchased Invitrogen Corporation (Carlsbad/CA, USA) PV4753
Protocol: Biochemical Assay for m-TOR by TR-FRET.
Assay components are purchased from Invitrogen Corporation (Carlsbad/CA, USA): GFP-4EBP1 (Cat. No. PV4759), Tb3+-α-p4EBP1 [pThr46] Antibody (Cat. No. PV4757), proprietary TR-FRET dilution buffer (Cat. No. PV3574), mTOR protein (Cat. No. PV4753).
Then 5 μL of ATP (8 μM final concentration) and GFP-4EBP1 (400 nM final concentration) with 5 μL mTOR proteins (0.5 nM final concentration) are incubated at rt. The standard reaction buffer for the TR-FRET mTOR assay contained 50 mM HEPES pH 7.5, 10 mM MnCl2, 50 mM NaCl, 1 mM EGTA, 1 mM DTT. Reactions were stopped with 10 μL of a mixture of EDTA containing the Tb3+-α-p4EBP1-[pT46] detection Ab (0.5 nM) in TR-FRET dilution buffer (proprietary to IVG). Plates are read 15 mins later in a Synergy2 reader using an integration time of 0.2 seconds and a delay of 0.1 seconds. […] A standard compound is used as a reference compound and included in all assay plates in the form of 16 dilution points in duplicate.

[1] = tested on: S6 Ribosomal Protein phosphorylation Ser235/236 in TSC1 null mouse embryo fibroblast (MEF) cells; experiment: Reverse protein array assay, S6 Ribosomal Protein phosphorylation Ser235/236 in TSC1 null MEF cells; type: cell-based; conditions: 1 h, pS6 ribosomal protein Ser235/236, 60 minutes incubation, read-out: p-S6 IC50
Protocol: (§5) The TSC1−/− cells were trypsinized and counted with a CASY TT cell counter (Schirfe System GmbH, Reutlingen Germany). […] The plates were incubated at 37° C. and 5% CO2 under humidified condition for at least 20 h. Working solutions were prepared freshly as serial 8 step dilutions (vol/vol) in DMSO on the day of the experiment. […] The final DMSO concentration was kept constant at 0.02%. cell culture medium containing 0.02% DMSO was used as vehicle treatment control. Post incubation, the cells were treated with the serial compound dilution. 50 μl of the compound medium mixture was added to the wells containing cells and 150 μl DMEM medium and incubated for 60 minutes (37° C., 5% CO2). After 60 minutes of incubation, the medium mixture was quickly removed by aspiration. […] 50 μl of the described lysis buffer mix was added to each well, followed by 10 minutes of incubation on ice.
The spotting of the chips follows the previous described method.

[2] = tested on: PKB Ser473 phosphorylation in Rat1-myr-HA-p110 delta cells; experiment: Reverse protein array assay, PKB Ser473 phosphorylation in Rat1-myr-p110 delta cells; type: cell-based; conditions: read-out: p-PKB IC50
Protocol: as §5, with “Rat1-myr-HA-p110 alpha, beta and delta” for “TSC1−/−”, “(Schärfe” for “(Schirfe”, “Compound of formula I working” for “Working”, “0.2%.” for “0.02%.”, “0.2%” for “0.02%”, “30” for “60”
(§6) The samples were spotted onto ZeptoMARKt PWG protein microarray chips (Zeptosens, Witterswil, Switzerland) with the piezoelectric microdispense-based, non-contact Nano-Plotter 2.1 (GeSiM, Grosserkmannsdorf, Germany). Each sample was spotted at 4 different sample concentrations (d1=100%, d2=75%, d3=50%, d4=25%) by diluting the cell lysate with the corresponding volume of lysis buffer mix. After spotting the ZeptoMARK® protein microarrays, the chips are incubated for 1 hour at 37° C. […] After 20 minutes of blocking the chips are extensively rinsed with deionized water (Milli-Q quality, 18MΩ×cm) and dried in a nitrogen air flow.
(§7) After incubation, the arrays were washed twice with 200 μl CAB1 buffer. […] The fluorescence signal was assessed with exposure times of 1, 3, 5 and 10 seconds, depending on the intensity of the signal. The resulting four images taken per array are stored as 16-bit TIF files.
(§8) The fluorescence images for each array were analyzed with the ZeptoVIEW Pro 2.0 software (Zeptosens, Witterswil, Switzerland) and the relative fluorescence intensity for each signal was calculated.

[3] = tested on: PKB Ser473 phosphorylation in Rat1-myr-HA-p110 beta cells; experiment: Reverse protein array assay, PKB Ser473 phosphorylation in Rat1-myr-p110 beta cells; type: cell-based; conditions: 0.5 h, pAkt Ser473, 30 minutes incubation, read-out: p-PKB IC50
Protocol: as §5, with “Rat1-myr-HA-p110 alpha, beta and delta” for “TSC1−/−”, “(Schärfe” for “(Schirfe”, “Compound of formula I working” for “Working”, “0.2%.” for “0.02%.”, “0.2%” for “0.02%”, “30” for “60”
as §6, §7, §8

[4] = tested on: PKB Ser473 phosphorylation in Rat1-myr-HA-p110 alpha cells; experiment: Reverse protein array assay, PKB Ser473 phosphorylation in Rat1-myr-p110 alpha cells; type: cell-based; conditions: 0.5 h, pAkt Ser473, 30 minutes compound incubation, read-out: p-PKB IC50
Protocol: as §5, with “Rat1-myr-HA-p110 alpha, beta and delta” for “TSC1−/−”, “(Schärfe” for “(Schirfe”, “Compound of formula I working” for “Working”, “0.2%.” for “0.02%.”, “0.2%” for “0.02%”, “30” for “60”
as §6, §7, §8

T4 sequence (P42345 1360-2549 limits assumed): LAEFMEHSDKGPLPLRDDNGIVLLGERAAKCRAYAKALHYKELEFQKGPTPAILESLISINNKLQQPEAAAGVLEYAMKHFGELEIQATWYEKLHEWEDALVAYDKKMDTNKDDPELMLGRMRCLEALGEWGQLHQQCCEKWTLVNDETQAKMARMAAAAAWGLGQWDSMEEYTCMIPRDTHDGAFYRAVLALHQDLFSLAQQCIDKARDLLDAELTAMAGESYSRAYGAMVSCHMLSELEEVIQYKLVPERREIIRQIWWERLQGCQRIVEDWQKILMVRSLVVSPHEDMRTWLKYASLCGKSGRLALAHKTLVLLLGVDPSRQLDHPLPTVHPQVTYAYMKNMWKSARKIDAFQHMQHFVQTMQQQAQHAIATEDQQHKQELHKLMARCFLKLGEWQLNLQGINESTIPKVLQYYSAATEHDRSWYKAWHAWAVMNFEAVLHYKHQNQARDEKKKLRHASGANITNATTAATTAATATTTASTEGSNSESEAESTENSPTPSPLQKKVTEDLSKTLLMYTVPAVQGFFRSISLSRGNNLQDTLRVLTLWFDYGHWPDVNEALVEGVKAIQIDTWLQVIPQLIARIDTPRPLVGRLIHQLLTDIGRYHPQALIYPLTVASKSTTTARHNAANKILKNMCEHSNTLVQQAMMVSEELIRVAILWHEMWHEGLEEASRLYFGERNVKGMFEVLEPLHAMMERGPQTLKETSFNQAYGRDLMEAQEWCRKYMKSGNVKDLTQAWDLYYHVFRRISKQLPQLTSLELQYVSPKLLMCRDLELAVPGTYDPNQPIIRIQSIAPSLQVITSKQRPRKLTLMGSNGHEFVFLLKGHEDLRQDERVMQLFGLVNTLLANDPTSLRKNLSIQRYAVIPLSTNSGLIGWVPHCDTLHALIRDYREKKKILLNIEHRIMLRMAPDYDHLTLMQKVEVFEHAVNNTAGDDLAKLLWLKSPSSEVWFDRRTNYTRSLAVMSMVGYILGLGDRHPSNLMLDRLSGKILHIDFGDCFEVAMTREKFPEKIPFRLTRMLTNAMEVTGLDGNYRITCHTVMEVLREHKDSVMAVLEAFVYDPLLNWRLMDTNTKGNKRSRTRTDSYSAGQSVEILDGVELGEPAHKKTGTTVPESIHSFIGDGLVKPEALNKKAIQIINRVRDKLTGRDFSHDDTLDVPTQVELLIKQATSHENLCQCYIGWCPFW
T2 sequence (P42338 with tags, fused parts or gaps limits assumed): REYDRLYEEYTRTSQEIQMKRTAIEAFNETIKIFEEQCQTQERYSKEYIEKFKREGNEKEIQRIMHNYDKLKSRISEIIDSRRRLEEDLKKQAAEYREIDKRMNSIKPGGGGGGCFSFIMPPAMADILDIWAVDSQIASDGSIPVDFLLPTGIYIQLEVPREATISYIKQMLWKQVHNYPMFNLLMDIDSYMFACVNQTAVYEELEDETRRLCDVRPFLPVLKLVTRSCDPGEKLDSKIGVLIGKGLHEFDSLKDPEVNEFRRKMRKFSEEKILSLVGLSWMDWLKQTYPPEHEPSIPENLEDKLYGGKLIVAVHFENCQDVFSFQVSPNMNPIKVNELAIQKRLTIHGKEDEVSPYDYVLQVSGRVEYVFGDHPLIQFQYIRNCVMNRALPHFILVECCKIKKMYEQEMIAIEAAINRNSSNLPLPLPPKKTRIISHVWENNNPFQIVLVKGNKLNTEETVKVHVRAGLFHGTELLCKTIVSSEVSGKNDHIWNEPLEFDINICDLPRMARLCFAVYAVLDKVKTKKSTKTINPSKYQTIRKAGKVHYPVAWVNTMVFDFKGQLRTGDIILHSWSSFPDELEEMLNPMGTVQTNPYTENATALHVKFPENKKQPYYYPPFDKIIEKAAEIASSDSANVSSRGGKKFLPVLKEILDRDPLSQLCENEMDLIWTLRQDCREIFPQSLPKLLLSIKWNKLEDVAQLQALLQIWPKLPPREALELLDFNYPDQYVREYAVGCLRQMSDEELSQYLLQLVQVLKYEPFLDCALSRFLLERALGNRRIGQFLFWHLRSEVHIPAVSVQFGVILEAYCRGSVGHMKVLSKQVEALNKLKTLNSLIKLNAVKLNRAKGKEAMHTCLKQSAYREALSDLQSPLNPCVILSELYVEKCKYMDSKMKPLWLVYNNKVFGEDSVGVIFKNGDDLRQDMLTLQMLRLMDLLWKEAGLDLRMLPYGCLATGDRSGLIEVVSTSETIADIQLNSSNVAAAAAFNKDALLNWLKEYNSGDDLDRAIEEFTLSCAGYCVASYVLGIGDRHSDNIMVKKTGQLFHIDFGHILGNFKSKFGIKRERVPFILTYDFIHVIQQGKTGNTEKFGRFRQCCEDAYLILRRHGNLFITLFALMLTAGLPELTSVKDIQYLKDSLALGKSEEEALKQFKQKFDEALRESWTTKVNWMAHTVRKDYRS
T3 sequence (O00329 with tags, fused parts or gaps limits assumed): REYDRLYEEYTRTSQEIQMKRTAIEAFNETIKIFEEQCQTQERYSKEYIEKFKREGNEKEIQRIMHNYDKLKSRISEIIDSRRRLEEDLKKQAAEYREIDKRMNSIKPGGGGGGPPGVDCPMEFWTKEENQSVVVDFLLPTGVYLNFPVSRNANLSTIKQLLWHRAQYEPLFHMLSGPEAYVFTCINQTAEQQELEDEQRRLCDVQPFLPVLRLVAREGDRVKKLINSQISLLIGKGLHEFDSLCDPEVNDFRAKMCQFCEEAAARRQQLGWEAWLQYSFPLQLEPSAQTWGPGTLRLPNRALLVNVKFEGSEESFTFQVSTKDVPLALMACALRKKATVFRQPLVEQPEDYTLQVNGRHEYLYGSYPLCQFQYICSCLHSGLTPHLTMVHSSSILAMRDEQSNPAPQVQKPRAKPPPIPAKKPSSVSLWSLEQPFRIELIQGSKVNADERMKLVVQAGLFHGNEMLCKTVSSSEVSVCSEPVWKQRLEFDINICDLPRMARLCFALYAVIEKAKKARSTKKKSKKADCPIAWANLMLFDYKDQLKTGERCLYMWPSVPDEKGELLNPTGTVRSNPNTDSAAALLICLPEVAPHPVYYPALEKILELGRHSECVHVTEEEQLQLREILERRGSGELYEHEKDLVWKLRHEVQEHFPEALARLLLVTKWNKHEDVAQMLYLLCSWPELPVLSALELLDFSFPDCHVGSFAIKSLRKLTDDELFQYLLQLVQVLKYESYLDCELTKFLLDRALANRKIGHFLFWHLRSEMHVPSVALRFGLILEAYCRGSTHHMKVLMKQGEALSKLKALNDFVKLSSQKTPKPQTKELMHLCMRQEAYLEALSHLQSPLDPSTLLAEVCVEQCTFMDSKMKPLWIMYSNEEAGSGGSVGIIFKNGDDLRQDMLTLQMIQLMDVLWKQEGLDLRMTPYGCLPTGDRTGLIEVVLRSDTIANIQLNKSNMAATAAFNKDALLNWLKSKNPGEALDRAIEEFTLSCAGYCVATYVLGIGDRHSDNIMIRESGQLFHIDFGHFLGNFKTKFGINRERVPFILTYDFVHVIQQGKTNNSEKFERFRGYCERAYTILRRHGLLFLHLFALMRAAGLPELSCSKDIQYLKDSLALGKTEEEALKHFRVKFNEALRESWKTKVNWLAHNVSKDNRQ
T1 sequence (P42336 with tags, fused parts or gaps limits assumed): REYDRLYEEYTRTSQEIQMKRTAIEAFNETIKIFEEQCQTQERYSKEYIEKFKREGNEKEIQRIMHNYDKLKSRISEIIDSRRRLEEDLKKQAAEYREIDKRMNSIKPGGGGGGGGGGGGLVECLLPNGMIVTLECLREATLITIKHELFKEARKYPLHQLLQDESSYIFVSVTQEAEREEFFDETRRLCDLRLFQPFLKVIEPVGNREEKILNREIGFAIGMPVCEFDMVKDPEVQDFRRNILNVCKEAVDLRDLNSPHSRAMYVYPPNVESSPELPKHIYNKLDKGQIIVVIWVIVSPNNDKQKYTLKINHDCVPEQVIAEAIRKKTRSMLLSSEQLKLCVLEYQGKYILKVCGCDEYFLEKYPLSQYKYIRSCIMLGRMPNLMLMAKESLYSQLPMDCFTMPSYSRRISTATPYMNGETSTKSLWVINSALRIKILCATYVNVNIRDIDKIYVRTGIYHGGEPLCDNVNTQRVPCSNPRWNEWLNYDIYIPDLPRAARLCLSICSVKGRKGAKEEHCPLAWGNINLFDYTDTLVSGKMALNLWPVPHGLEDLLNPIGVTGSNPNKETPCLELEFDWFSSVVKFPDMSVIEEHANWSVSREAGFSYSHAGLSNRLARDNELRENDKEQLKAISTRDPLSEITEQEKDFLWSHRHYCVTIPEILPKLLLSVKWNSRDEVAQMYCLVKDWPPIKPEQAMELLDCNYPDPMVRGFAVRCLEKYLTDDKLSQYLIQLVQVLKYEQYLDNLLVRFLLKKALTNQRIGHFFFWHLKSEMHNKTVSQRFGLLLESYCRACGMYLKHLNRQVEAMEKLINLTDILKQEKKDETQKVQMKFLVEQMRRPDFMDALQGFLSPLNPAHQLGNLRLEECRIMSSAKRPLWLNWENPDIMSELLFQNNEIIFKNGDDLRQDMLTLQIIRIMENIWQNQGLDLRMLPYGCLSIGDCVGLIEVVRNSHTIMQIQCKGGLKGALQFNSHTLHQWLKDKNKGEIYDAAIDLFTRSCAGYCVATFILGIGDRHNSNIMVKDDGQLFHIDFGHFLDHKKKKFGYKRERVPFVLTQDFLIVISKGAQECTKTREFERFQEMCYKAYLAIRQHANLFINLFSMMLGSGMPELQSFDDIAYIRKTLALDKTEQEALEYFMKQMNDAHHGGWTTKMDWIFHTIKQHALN

Row | Compound | pIC50 (PI3K alpha) | pIC50 (PI3K beta) | pIC50 (PI3K delta) | pIC50 (mTOR) | pIC50 [1] | pIC50 [2] | pIC50 [3] | pIC50 [4]
1 | Cc1ccc(-c2ccc3ncc4c(c3c2)n(-c2cc(C)nn2C)c(=O)n4C)cn1 [Example 7.1, 1-(2,5-Dimethyl-2H-pyrazol-3-yl)-3-methyl-8-(6-methyl-pyridin-3-yl)-1,3-dihydro-imidazo[4,5-c]quinolin-2-one] | 7.34 | 6.39 | 7.17 | 6.98 |  |  |  | 
2 | CCN(C)C(=O)Cn1cc(-n2c(=O)n(C)c3cnc4ccc(-c5ccc(-n6cccn6)cc5)cc4c32)c(C)n1 [Example 51.6, N-Ethyl-N-methyl-2-{3-methyl-4-[3-methyl-2-oxo-8-(4-pyrazol-1-yl-phenyl)-2,3-dihydro-imidazo[4,5-c]quinolin-1-yl]pyrazol-1-yl}-acetamide] | 7.21 |  |  | 7.57 | > 9.30 | 7.82 | 7.92 | 7.92
3 | CCn1c(=O)n(C)c2ncc(-c3ccc4ncc5c(c4c3)n(-c3cn(C)nc3C)c(=O)n5C)cc21 [Example 68, 1-(1,3-Dimethyl-1H-pyrazol-4-yl)-8-(1-ethyl-3-methyl-2-oxo-2,3-dihydro-1H-imidazo[4,5-b]pyridin-6-yl)-3-methyl-1,3-dihydro-imidazo[4,5-c]quinolin-2-one] | 7.68 | 7.21 | 7.54 | 6.34 |  | 7.15 | 7.04 | 
4 | COc1nc2cc(-c3ccc4ncc5c(c4c3)n(-c3cn(C)nc3C)c(=O)n5C)cnc2n1C [Example 71, 1-(1,3-Dimethyl-1H-pyrazol-4-yl)-8-(2-methoxy-3-methyl-3H-imidazo[4,5-b]pyridin-6-yl)-3-methyl-1,3-dihydro-imidazo[4,5-c]quinolin-2-one] |  |  | 6.58 | 6.25 | 7.89 | 6.42 | 6.96 | 7.43
5 | CCn1cc(-n2c(=O)n(C)c3cnc4ccc(-c5cnc(CO)c(NC)c5)cc4c32)c(C)n1 [Example 158.5, 1-(1-Ethyl-3-methyl-1H-pyrazol-4-yl)-8-(6-hydroxymethyl-5-methylamino-pyridin-3-yl)-3-methyl-1,3-dihydro-imidazo[4,5-c]quinolin-2-one] | 7.85 | 7.68 | 8.15 | 8.52 |  |  |  | 
6 | Cc1nn(CC(=O)N2CCOCC2)cc1-n1c(=O)n(C)c2cnc3ccc(-c4cnc(N5CCCC5)nc4)cc3c21 [Example 247.3, 3-Methyl-1-[3-methyl-1-(2-morpholin-4-yl-2-oxo-ethyl)-1H-pyrazol-4-yl]-8-(2-pyrrolidin-1-yl-pyrimidin-5-yl)-1,3-dihydro-imidazo[4,5-c]quinolin-2-one] | 6.79 |  |  | 7.55 | 7.46 | 6.20 | 6.62 | 6.76
7 | CCn1cc(-n2c(=O)n(C)c3cnc4ccc(-c5cnc(NC)c(COC)c5)cc4c32)c(C)n1 [Example 248.2, 1-(1-Ethyl-3-methyl-1H-pyrazol-4-yl)-8-(5-methoxymethyl-6-methylamino-pyridin-3-yl)-3-methyl-1,3-dihydro-imidazo[4,5-c]quinolin-2-one] | 8.10 | 7.66 | 8.52 | 7.82 |  |  |  | 
8 | CNc1ncc(-c2ccc3ncc4c(c3c2)n(-c2c(C)nn(C)c2C)c(=O)n4C)cc1COC [Example 248.5, 8-(5-Methoxymethyl-6-methylamino-pyridin-3-yl)-3-methyl-1-(1,3,5-trimethyl-1H-pyrazol-4-yl)-1,3-dihydro-imidazo[4,5-c]quinolin-2-one] | 7.49 | 6.84 | 7.85 | 6.25 |  |  |  | 
